Where two headings read alike, the source gives them in different places. Marks after values point to notes of the source that are not given here.
Legend:
[1] = composition including chlorite, equilibrated ten days
Procedure: Brimonidine tartrate is added to a test tube containing a composition including chlorite. The test tube was allowed to equilibrate for ten days. Samples obtained from the test tube is analyzed.

[2] = for Solubility: 23° C., stirred 2 days
Procedure: Table 1. It will be understood that concentrations of adrenergic agonists other than 0.5% may be used, so long as they have therapeutic activity. Likewise, the temperature may be varied, for example, solubility curves may be performed at 37° C. (98.6° F.). The formulation vehicle was prepared by first dissolving polyvinyl alcohol (PVA) in water. The PVA was added to approximately ⅓ of the required total amount of purified water with constant stirring. The slurry was stirred for 20-30 minutes and then heated to 80-95° C. with constant stirring. The mixture was removed from the heat source within 1 hour after having reached the temperature of 80-90° C. and stirred for an additional 10 minutes to ensure homogeneity (Part I). The other ingredients of the Ophthalmic Solution, except for Brimonidine tartrate, were dissolved in a separate container with an additional ⅓ of the required total amount of purified water (Part II). The PVA mixture (Part I) was then quantitatively transferred to Part II using several rinse volumes of purified water. The solution was adjusted to final volume with purified water without pH adjustment.
Brimonidine tartrate was weighed and transferred to a 10 mL test tube containing 5 mL of the formulation vehicle described above. The pH of each sample was then adjusted to a desired value using dilute sodium hydroxide and/or dilute hydrochloric acid. The samples were placed in a rack on a stir plate and stirred at high speed to achieve uniform mixing for 2 days; a partition was placed between the rack and the stir plate to prevent any heat diffusion from the stir plate to the samples.
At the end of two days of stirring, the pH value of each sample was measured, and then approximately 1 mL of each sample was placed in a micro centrifuge tube (polypropylene) and centrifuged at 4,000 rpm for 10 minutes. The supernatant was filtered through a 1 μm filter unit (Whatman, 13 mm, PTFE). The first 3-4 drops of the filtrate were discarded; the rest of the filtrate was received and diluted quantitatively with HPLC mobile phase. The dilute sample was then injected directly on the HPLC column (Dupont Zorbax, 250 mm×4.6 mm, 5 μm) for Brimonidine tartrate assay in order to quantify the amount of Brimonidine tartrate. A control of 10.05% Brimonidine tartrate was prepared in the formulation vehicle at pH 6.3-6.5 and assayed before (untreated) and after (treated) centrifugation and filtration. This was done to evaluate the potential loss of Brimonidine tartrate in these two steps of the sample preparation. To ensure reproducibility, the study was repeated on consecutive days.

[3] = for Solubility of Brimonidine tartrate: 0% CMC
Procedure: The pH-solubility profiles of Brimonidine tartrate in compositions (solutions) containing SECs and oxy-chloro components were determined. Particularly, the effects of sodium carboxymethylcellulose (CMC), an SEC, on the solubility of Brimonidine tartrate at various pH conditions were determined. The various concentrations of CMC tested with Brimonidine tartrate were 0%, 0.056%, 0.17%, 0.5%, 1.5% (w/v), Table III.
The samples tested also contained isotonic components, buffer components, and stabilized chlorine dioxide (Purite™), Table III. Sodium carboxymethyl-cellulose, sodium chloride, potassium chloride, calcium chloride dihydrate, and magnesium chloride hexahydrate were USP grade. Boric acid and sodium borate decahydrate were NF grade.
Each sample (1 through 5) was subjected to a range of pH's from about 7 to about 10. The vials containing the sample solutions were placed on a laboratory rotator and left for equilibration for fifteen days at room temperature (˜21° C.). The sample solutions were filtered using a 25 mm diameter polysulfone cellulose acetate syringe type filter with 0.45 μm pore size. The filtered solutions were assayed for Brimonidine.
Conventional HPLC and detection techniques were used to detect and determine the concentrations of soluble Brimonidine tartrate. […] The solubility is plotted against pH for each CMC concentration. The experimental data points were fitted to a modified Henderson-Hasselbalch equation using a nonlinear least squares routine (Deltagraph version 4.0 DeltaPoint, Inc.), FIG. 1.

tartrate of 5-bromo-6-(2-imidozolin-2-ylamino) quinoxaline [Brimonidine tartrate]
formation of dimers [1]: a portion of the Brimonidine tartrate monomer units conjugated to form dimers | Solubility ([2]; Study 1, pH 5.55, Ophthalmic Solution vehicle, theoretical concentration based on sample weight, solution clear): ≧164.4^b % w/v | Solubility ([2]; Study 1, pH 5.92, Ophthalmic Solution vehicle): 132.6 % w/v | Solubility ([2]; Study 1, pH 6.14, Ophthalmic Solution vehicle): 30.4 % w/v | Solubility ([2]; Study 1, pH 6.57, Ophthalmic Solution vehicle): 7.55 % w/v | Solubility ([2]; Study 1, pH 7.00, Ophthalmic Solution vehicle): 2.69 % w/v | Solubility ([2]; Study 1, pH 7.45, Ophthalmic Solution vehicle): 1.17 % w/v | Solubility ([2]; Study 1, pH 7.83, Ophthalmic Solution vehicle): 0.62 % w/v | Solubility ([2]; Study 2, pH 5.50, Ophthalmic Solution vehicle, theoretical concentration based on sample weight, solution clear): ≧200.6^b % w/v | Solubility ([2]; Study 2, pH 5.92, Ophthalmic Solution vehicle): 160.8 % w/v | Solubility ([2]; Study 2, pH 6.06, Ophthalmic Solution vehicle): 50.1 % w/v | Solubility ([2]; Study 2, pH 6.90, Ophthalmic Solution vehicle): 3.19 % w/v | Solubility ([2]; Study 2, pH 7.40, Ophthalmic Solution vehicle): 1.19 % w/v | Solubility ([2]; Study 2, pH 7.77, Ophthalmic Solution vehicle): 0.63 % w/v | Solubility ([2]; Study 2, pH 7.86, Ophthalmic Solution vehicle): 0.58 % w/v | Solubility ([2]; Study 2, pH 7.88, Ophthalmic Solution vehicle): 0.54 % w/v | pH dependence of solubility ([2]; formulation vehicles, pH range of 5-8): highly pH-dependent | Solubility of Brimonidine tartrate ([3]; pH 6.68, equilibrated fifteen days at room temperature (~21° C.)): 1.4256% | Solubility of Brimonidine tartrate ([3]; pH 7.11, equilibrated fifteen days at room temperature (~21° C.)): 0.2064% | Solubility of Brimonidine tartrate ([3]; pH 7.68, equilibrated fifteen days at room temperature (~21° C.)): 0.0786% | Solubility of Brimonidine tartrate ([3]; pH 8.50, equilibrated fifteen days at room temperature (~21° C.)): 0.0286% | Solubility of Brimonidine tartrate ([3]; pH 10.09, equilibrated fifteen days at room temperature (~21° C.)): 0.0218% | soluble Brimonidine tartrate (FIG. 1) ([3]; pH 7.5, 0% CMC): 1000 ppm | soluble Brimonidine tartrate (FIG. 1) ([3]; pH 7.5, 0.056% CMC): 1300 ppm | soluble Brimonidine tartrate (FIG. 1) ([3]; pH 7.5, 0.17% CMC): 1300 ppm | soluble Brimonidine tartrate (FIG. 1) ([3]; pH 7.5, 0.5% CMC): 1600 ppm | soluble Brimonidine tartrate (FIG. 1) ([3]; pH 7.5, 1.5% CMC): about 1400 ppm

Source: US6627210B2, “Compositions containing α-2-adrenergic agonist components” (Allergan, Inc., priority 2000, dated 2003)
